Data: patent publication US8158810B2 (Gilead Sciences, Inc., priority 2006, dated 2012)
pIC50: −log10 of the molar value. Values joined by “and” are separate entries in the source; they are usually repeats but may differ in a detail not shown here. Equal entries are not always repeated.

How the values were obtained:
Type in all cases: biochemical
[1] = target: T1, hALDH2 (recombinant human mitochondria ALDH) (Homo sapiens, UniProt P05091); assay: ALDH2 inhibition assay
T1 sequence (P05091 18-517): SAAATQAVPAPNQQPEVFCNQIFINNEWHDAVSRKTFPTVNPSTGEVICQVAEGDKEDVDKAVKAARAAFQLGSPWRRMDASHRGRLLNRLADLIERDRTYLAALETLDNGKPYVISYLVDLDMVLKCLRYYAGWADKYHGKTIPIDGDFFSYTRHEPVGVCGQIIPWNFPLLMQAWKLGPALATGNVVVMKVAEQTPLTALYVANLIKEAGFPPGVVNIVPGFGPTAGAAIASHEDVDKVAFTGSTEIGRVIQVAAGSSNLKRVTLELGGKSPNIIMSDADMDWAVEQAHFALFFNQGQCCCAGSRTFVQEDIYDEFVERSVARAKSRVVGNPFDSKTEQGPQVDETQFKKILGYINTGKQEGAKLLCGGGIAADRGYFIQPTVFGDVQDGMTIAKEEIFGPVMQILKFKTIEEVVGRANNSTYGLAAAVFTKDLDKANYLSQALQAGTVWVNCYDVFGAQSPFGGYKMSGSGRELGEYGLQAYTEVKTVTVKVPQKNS
Protocol: ALDH2 inhibition assays were performed in sodium phosphate buffer (50 mM, pH 7.4) containing 1.2 mM NAD^+ (Sigma N7004), 1 nM hALDH2 (recombinant human mitochondria ALDH), various concentrations of test compounds (from 0.03 nM to […]), and 0.15 mM freshly prepared formaldehyde solution (Ladd Research 20295). Reactions were initiated by the addition of formaldehyde and rates were recorded by monitoring NADH formation in a temperature controlled (25° C.) FluoroMax-2 Fluorimeter with excitation and emission wavelengths set at 340 and 460 nm, respectively. […] Normally, IC50 values were determined by fitting concentration-inhibition data to sigmoidal dose-response curves with two-floating parameters: IC50 and Hill coefficient. When tight binding situation was suspected, apparent Ki values were estimated by fitting dose-response data to Morrison's equation [Methods in Enzymology 63, 437-467, 1979].

hMAO-A = target: T2, hMAO-A (Homo sapiens, UniProt P21397); assay: MAO-A inhibition assay; settings: No = no inhibition; for hMAO-A inhibition up to 10 μM: printed in the IC50 hMAO-A column
T2 construct: purchased Sigma M7316
T2 sequence (P21397 1-527): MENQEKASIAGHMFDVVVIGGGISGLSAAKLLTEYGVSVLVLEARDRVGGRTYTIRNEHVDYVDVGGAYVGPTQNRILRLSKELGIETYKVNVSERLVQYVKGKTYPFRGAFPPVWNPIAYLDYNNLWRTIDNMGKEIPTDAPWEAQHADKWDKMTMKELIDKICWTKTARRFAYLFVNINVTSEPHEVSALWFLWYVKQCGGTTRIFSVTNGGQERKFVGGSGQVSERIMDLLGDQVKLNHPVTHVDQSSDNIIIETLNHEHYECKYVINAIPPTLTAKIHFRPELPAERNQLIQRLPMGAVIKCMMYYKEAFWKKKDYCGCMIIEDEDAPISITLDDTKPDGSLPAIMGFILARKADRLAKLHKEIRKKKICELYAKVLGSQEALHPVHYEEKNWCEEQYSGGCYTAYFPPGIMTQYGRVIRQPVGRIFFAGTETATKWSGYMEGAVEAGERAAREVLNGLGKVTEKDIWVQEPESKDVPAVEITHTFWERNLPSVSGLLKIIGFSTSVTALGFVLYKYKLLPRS
Protocol: (§1) MAO-A (Sigma M7316) and MAO-B (Sigma M7441) inhibition assays were conducted in 96-well micro-plates according to the method described by Zhou et al. [Analytical Biochemistry 253, 169-174, 1997]. […] Reactions were initiated by the addition of a pre-mixed solution of tyramine, horseradish peroxidase and Amplex Red, and were allowed to proceed at 37° C. for 30 min. Enzyme activities were determined by measuring absorbance at 570 nm (SpectralMax Plate reader), absorbance of oxidized Amplex Red generated by this horseradish peroxidase-coupled reaction. Nonspecifically formed products were determined in the presence of 2 and 10 µM clorgyline and deprenyl for MAO-A and MAO-B, respectively. IC50 values were determined by fitting concentration-inhibition data to sigmoidal dose-response curves with two-floating parameters: IC50 and Hill coefficient.

hMAO-B = target: T3, hMAO-B (Homo sapiens, UniProt P27338); assay: MAO-B inhibition assay; settings: No = no inhibition; for inhibition at 10 µM / hMAO-B inhibition at 10 μM: printed in the IC50 hMAO-B column
T3 construct: purchased Sigma M7441
T3 sequence (P27338 1-520): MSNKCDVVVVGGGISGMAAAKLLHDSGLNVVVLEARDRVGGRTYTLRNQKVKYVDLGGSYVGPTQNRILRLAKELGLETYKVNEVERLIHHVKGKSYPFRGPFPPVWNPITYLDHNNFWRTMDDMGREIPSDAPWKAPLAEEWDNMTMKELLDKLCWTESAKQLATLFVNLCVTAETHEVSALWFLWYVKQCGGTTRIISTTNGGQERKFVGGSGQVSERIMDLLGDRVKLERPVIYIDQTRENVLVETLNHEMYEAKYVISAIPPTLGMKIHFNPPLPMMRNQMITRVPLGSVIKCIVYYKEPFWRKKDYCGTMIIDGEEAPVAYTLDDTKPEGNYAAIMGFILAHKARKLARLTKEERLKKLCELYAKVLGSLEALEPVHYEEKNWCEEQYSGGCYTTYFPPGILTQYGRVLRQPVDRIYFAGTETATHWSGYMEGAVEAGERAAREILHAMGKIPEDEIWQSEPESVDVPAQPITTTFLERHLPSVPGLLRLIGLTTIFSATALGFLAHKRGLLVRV
Protocol: as §1

Molecule | pIC50 [1] | hMAO-A inhibition up to 10 μM (hMAO-A) | hMAO-B inhibition at 10 μM (hMAO-B) | other results
7-{2-[4-(3-chlorophenyl)piperazinyl]ethoxy}-3-(4-hydroxyphenyl)chromen-4-one [PT-123] | 7.96 | No | – | –
CC(Oc1ccc2c(=O)c(-c3ccc(O)cc3)coc2c1)c1nnc(-c2cccnc2)o1 (stereo not drawn) | 7.77 and 7.82 | No | – | inhibition at 10 µM (hMAO-B): 30%
3-(4-hydroxyphenyl)-7-(2-{4-[3-(trifluoromethyl)phenyl]piperazinyl}ethoxy)chromen-4-one [PT-124] | 7.74 | No | 21% | –
3-(4-hydroxyphenyl)-7-[(5-(4-pyridyl)(1,2,4-oxadiazol-3-yl))ethoxy]chromen-4-one [PT-117] | 7.01 | No | No | –
ethyl 3-[7-({3-[3-fluoro-5-(trifluoromethyl)phenyl](1,2,4-oxadiazol-5-yl)}ethoxy)-4-oxochromen-3-yl]benzoate [PT-76] | 7.20 | No | 21% | –
3-(4-hydroxyphenyl)-7-[(6-pyrazolyl(3-pyridyl))methoxy]chromen-4-one [PT-52] | 8.00 | No | – | –
CC(Oc1ccc2c(=O)c(-c3ccc(O)cc3)coc2c1)c1noc(-c2cc(F)cc(C(F)(F)F)c2)n1 (stereo not drawn) | 7.32 | No | – | inhibition at 10 µM (hMAO-B): 18%
O=C(O)c1ccc(COc2ccc3c(=O)c(-c4ccc(O)cc4)coc3c2)cc1 [PT-36, 4-{[3-(4-hydroxyphenyl)-4-oxochromen-7-yloxy]methyl}benzoic acid] | – | – | – | hMAO-A inhibition up to 40 μM (hMAO-A): No; hMAO-B inhibition up to 30 μM (hMAO-B; up to 30 μM): No
O=c1c(-c2ccc(O)cc2)coc2cc(OCc3coc(-c4ccc(F)cc4)n3)ccc12 [PT-16, 7-{[2-(4-fluorophenyl)(1,3-oxazol-4-yl)]methoxy}-3-(4-hydroxyphenyl)chromen-4-one] | – | No | No | –
N#Cc1cc(-c2coc3cc(OCc4noc(-c5cc(F)cc(C(F)(F)F)c5)n4)ccc3c2=O)ccc1F [PT-9, 2-fluoro-5-[7-({5-[5-fluoro-3-(trifluoromethyl)phenyl](1,2,4-oxadiazol-3-yl)}methoxy)-4-oxochromen-3-yl]benzenecarbonitrile] | – | – | – | hALDH2 inhibition at 1 μM ([1]; at 1 μM, printed in the IC50 hALDH2 column): 25%
O=c1c(-c2ccc(O)cc2)coc2cc(OCc3noc(-c4ccccc4)n3)ccc12 [PT-24, 3-(4-hydroxyphenyl)-7-[(5-phenyl(1,2,4-oxadiazol-3-yl))methoxy]chromen-4-one] | – | – | – | hMAO-A inhibition up to 40 μM (hMAO-A): No; hMAO-B inhibition up to 40 μM (hMAO-B; up to 40 μM): No

Now from value to molecule, other results behind:

pIC50 [1] | hMAO-A inhibition up to 10 μM (hMAO-A) | hMAO-B inhibition at 10 μM (hMAO-B) | Molecule | other results
6.96 | – | – | O=c1c(-c2ccc(O)cc2)coc2cc(OCCc3n[nH]cc3-c3ccc(Cl)cc3)ccc12 [PT-51, 7-{2-[4-(4-chlorophenyl)pyrazolyl]ethoxy}-3-(4-hydroxyphenyl)chromen-4-one] | –
6.17 | No | 24% | O=c1c(-c2ccc(O)cc2)coc2cc(OCCc3cccc(C(F)(F)F)c3)ccc12 [PT-59, 3-(4-hydroxyphenyl)-7-{[3-(trifluoromethyl)phenyl]ethoxy}chromen-4-one] | –
6.96 | – | – | O=c1c(-c2ccc(O)cc2)coc2cc(OCCCc3n[nH]cc3-c3ccc(Cl)cc3)ccc12 [PT-106, 7-{3-[4-(4-chlorophenyl)pyrazolyl]propoxy}-3-(4-hydroxyphenyl)chromen-4-one] | –
8.30 | No | No | O=c1c(-c2ccc(O)cc2)coc2cc(OCCc3nnc(-c4ccc(F)cc4)o3)ccc12 [PT-112, 7-{[5-(4-fluorophenyl)(1,3,4-oxadiazol-2-yl)]echoxy}-3-(4-hydroxyphenyl)chromen-4-one] | –
– | No | No | O=c1c(-c2ccc(O)cc2)coc2cc(OCc3cncc(C(F)(F)F)c3)ccc12 [PT-94, 3-(4-hydroxyphenyl)-7-{[5-(trifluoromethyl)(3-pyridyl)]methoxy}chromen-4-one] | –
– | No | No | O=c1c(-c2ccc(O)cc2)coc2cc(OCc3nc(-c4cccc(C(F)(F)F)c4)no3)ccc12 [PT-115, 3-(4-hydroxyphenyl)-7-({3-[3-(trifluoromethyl)phenyl](1,2,4-oxadiazol-5-yl)}methoxy)chromen-4-one] | –
– | No | No | O=C(COc1ccc2c(=O)c(-c3ccc(O)cc3)coc2c1)c1ccccc1C(F)(F)F [PT-85, 3(4-hydroxyphenyl)-7-{2-oxo-2-[2-(trifluoromethyl)phenyl]ethoxy}chromen-4-one] | –
– | No | – | O=c1c(-c2ccc(O)cc2)coc2cc(OCc3noc(-c4cc(C(F)(F)F)cc(C(F)(F)F)c4)n3)ccc12 [PT-39, 7-({5-[3,5-bis(trifluoromethyl)phenyl](1,2,4-oxadiazol-3-yl)}methoxy)-3-(4-hydroxyphenyl)chromen-4-one] | hMAO-B inhibition up to 10 μM (hMAO-B): No
– | No | – | O=c1c(-c2ccc(O)cc2)coc2cc(OCc3noc(-c4ccc(F)c(C(F)(F)F)c4)n3)ccc12 [PT-30, 7-({5-[4-fluoro-3-(trifluoromethyl)phenyl](1,2,4-oxadiazol-3-yl)}methoxy)-3-(4-hydroxyphenyl)chromen-4-one] | hMAO-B inhibition up to 10 μM (hMAO-B): No
– | No | – | O=c1c(-c2ccc(O)cc2)coc2cc(OCc3noc(-c4cccc(F)c4)n3)ccc12 [PT-42, 7-{[5-(3-fluorophenyl)(1,2,4-oxadiazol-3-yl)]methoxy}-3-(4-hydroxyphenyl)chromen-4-one] | hMAO-B inhibition up to 10 μM (hMAO-B): No
– | No | – | C=CCOC(=O)c1cccc(-c2nc(COc3ccc4c(=O)c(-c5ccc(O)cc5)coc4c3)no2)c1 [PT-32, prop-2-enyl 3-(3-{[3-(4-hydroxyphenyl)-4-oxochromen-7-yloxy]methyl}-1,2,4-oxadiazol-5-yl)benzoate] | hMAO-B inhibition up to 10 μM (hMAO-B): No
